From patent US20230139171A1 (SITA Information Networking Computing UK Limited, priority 2019, published 2023)

Columns and labels:
Assay type in all cases: cell-based
human TLR7 = target: T1, human TLR7 (Homo sapiens, UniProt Q9NYK1); experiment: TLR7 inhibition reporter assay (HEK-Blue cells, SEAP reporter, gardiquimod stimulation); conditions: HEK-Blue cells overexpressing human TLR7, SEAP reporter, gardiquimod 7.5 μM; read-out: TLR7 IC50
T1 construct: host or cells: HEK-Blue cells
T1 sequence (Q9NYK1 27-1049): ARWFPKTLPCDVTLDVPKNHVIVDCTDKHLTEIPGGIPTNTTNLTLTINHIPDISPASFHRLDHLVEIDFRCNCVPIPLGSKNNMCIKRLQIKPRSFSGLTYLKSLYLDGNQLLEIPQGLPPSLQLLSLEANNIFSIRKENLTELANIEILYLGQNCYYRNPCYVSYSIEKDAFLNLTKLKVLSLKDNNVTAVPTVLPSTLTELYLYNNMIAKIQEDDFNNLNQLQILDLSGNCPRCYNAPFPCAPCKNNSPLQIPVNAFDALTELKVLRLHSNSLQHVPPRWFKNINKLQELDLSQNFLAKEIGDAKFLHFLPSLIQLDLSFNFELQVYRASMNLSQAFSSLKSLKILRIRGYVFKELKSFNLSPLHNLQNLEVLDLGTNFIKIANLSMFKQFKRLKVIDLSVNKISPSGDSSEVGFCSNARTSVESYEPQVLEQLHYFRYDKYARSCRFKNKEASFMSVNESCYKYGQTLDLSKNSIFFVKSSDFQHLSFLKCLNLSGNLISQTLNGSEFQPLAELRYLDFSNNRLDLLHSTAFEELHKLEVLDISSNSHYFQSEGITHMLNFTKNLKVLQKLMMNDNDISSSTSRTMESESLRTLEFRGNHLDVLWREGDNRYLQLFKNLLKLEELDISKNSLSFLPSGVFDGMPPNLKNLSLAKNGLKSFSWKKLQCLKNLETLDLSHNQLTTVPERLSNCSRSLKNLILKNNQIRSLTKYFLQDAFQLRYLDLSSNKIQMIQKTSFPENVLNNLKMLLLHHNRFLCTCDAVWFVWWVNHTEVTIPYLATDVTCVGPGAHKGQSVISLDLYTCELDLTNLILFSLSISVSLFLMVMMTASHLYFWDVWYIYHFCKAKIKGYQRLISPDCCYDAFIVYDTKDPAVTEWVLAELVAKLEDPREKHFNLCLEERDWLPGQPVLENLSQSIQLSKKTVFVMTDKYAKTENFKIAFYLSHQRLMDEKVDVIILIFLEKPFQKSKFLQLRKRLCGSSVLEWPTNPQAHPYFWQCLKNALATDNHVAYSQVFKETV
In short: (§1)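 Human TLR7/8/9 HEK-Blue reporter lines; dose range 0.05 nM–50 μM; 30 min RT preincubation; stimulus gardiquimod 7.5 μM / R848 15.9 μM / ODN2006 5 nM respectively; 22 h, 37 °C; SEAP detected colorimetrically.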

human TLR9 = target: T2, human TLR9 (Homo sapiens, UniProt Q9NR96); experiment: TLR9 inhibition reporter assay (HEK-Blue cells, SEAP reporter, ODN2006 stimulation); conditions: HEK-Blue cells overexpressing human TLR9, SEAP reporter, ODN2006 5 nM
T2 construct: host or cells: HEK-Blue cells
T2 sequence (Q9NR96 26-1032): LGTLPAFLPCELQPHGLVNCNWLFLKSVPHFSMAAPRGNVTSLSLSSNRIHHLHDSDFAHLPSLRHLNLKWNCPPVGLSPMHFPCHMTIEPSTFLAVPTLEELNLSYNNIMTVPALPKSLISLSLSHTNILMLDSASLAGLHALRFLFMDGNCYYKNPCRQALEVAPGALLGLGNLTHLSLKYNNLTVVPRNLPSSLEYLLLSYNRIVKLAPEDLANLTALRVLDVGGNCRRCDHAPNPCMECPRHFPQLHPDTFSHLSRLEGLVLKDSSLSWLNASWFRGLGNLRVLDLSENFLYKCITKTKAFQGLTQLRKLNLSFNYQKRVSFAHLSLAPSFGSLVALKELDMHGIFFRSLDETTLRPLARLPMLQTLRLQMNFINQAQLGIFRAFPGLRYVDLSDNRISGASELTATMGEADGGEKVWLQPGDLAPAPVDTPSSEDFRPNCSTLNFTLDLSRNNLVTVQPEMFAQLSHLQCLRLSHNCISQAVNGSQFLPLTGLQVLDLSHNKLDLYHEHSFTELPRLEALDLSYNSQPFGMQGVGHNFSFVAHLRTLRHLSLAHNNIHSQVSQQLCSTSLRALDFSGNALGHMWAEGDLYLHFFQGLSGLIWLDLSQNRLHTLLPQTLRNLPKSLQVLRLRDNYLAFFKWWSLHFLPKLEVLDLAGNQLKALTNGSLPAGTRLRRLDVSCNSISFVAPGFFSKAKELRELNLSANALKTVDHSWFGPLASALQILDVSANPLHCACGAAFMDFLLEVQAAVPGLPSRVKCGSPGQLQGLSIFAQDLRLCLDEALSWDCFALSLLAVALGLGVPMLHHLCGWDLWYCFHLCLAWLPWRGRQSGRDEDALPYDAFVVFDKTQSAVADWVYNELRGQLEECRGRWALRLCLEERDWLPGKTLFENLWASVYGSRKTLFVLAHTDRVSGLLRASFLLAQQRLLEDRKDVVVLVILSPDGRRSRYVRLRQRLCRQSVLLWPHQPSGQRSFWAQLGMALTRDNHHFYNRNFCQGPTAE
In short: as §1

human TLR8 = target: T3, human TLR8 (Homo sapiens, UniProt Q9NR97); experiment: TLR8 inhibition reporter assay (HEK-Blue cells, SEAP reporter, R848 stimulation); conditions: HEK-Blue cells overexpressing human TLR8, SEAP reporter, R848 15.9 μM; read-out: TLR8 IC50
T3 construct: host or cells: HEK-Blue cells
T3 sequence (Q9NR97 27-1041): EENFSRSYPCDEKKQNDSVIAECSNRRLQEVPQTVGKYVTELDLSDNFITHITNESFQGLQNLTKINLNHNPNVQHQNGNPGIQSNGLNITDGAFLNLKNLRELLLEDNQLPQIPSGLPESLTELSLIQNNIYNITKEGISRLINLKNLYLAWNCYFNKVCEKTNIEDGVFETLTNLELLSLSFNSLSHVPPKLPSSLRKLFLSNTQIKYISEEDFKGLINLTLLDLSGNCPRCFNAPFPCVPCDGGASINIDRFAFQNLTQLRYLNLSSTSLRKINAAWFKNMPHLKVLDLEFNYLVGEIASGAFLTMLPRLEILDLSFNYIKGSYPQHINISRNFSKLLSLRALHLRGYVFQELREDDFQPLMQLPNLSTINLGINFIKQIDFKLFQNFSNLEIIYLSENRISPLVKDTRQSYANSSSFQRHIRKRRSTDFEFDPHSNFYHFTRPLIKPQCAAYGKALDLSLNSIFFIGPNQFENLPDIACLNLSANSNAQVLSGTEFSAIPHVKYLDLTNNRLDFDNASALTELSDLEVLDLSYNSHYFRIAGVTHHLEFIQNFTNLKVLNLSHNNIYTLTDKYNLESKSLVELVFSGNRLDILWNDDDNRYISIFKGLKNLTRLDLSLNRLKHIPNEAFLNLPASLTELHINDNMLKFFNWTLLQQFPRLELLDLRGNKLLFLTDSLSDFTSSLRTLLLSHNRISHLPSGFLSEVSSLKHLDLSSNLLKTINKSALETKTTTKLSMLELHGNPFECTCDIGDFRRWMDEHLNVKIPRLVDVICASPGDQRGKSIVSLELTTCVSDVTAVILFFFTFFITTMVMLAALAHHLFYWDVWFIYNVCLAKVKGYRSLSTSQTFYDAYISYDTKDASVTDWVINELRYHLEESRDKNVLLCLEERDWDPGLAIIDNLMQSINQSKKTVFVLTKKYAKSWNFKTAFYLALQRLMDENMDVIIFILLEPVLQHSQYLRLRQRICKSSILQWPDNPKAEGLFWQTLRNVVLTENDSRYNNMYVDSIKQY
In short: as §1

SMILES | IC50 (human TLR7) | IC50 (human TLR9) | IC50 (human TLR8)
Cc1c(-c2[nH]c3sc(N4C[C@@H](C)N(C5CCC5)C[C@@H]4C)nc3c2C(C)C)cn2ncnc2c1C [Example 333, 2-((2S,5R)-4-cyclobutyl-2,5-dimethylpiperazin-1-yl)-5-(7,8-dimethyl-[1,2,4]triazolo[1,5-a]pyridin-6-yl)-6-isopropyl-4H-pyrrolo[3,2-d]thiazole] | 34.9 nM | 37400 nM | 2.19 nM
Cc1cc(-c2[nH]c3sc(C4CCN(CC(C)(C)O)CC4)nc3c2C(C)C)cc(C)n1 [Example 29, 1-(4-(5-(2,6-dimethylpyridin-4-yl)-6-isopropyl-4H-pyrrolo[3,2-d]thiazol-2-yl)piperidin-1-yl)-2-methylpropan-2-ol] | 18.4 nM | 216 nM | 1.91 nM
Cc1cc2ncnn2cc1-c1[nH]c2sc(C3CCC(NC4COC4)CC3)nc2c1C(C)C (single isomer, unassigned) [Example 153, N-(4-(6-isopropyl-5-(7-methyl-[1,2,4]triazolo[1,5-a]pyridin-6-yl)-4H-pyrrolo[3,2-d]thiazol-2-yl)cyclohexyl)oxetan-3-amine] | 27.8 nM | 22300 nM | 6.62 nM
Cc1cc2ncnn2cc1-c1[nH]c2sc(C3CCC(N4CCCC4)CC3)nc2c1C(C)C (single isomer, unassigned) [Example 155, 6-isopropyl-5-(7-methyl-[1,2,4]triazolo[1,5-a]pyridin-6-yl)-2-(4-(pyrrolidin-1-yl)cyclohexyl)-4H-pyrrolo[3,2-d]thiazole] | 41.5 nM | > 50000 nM | 21.5 nM
Cc1c(-c2[nH]c3sc(C4CCC(N5CC6(COC6)C5)CC4)nc3c2C(C)C)cn(C)c(=O)c1C (single isomer, unassigned) [Example 246, 5-(2-(4-(2-oxa-6-azaspiro[3.3]heptan-6-yl)cyclohexyl)-6-isopropyl-4H-pyrrolo[3,2-d]thiazol-5-yl)-1,3,4-trimethylpyridin-2(1H)-one] | 60.8 nM | > 50000 nM | 154 nM

The next compounds have a lower IC50 (human TLR7) than those just listed; values first:

IC50 (human TLR7) | IC50 (human TLR9) | IC50 (human TLR8) | SMILES
7.89 nM | 4500 nM | 6.75 nM | Cc1cc(-c2[nH]c3sc(C(=O)N4CCC(N(C)C)CC4)nc3c2C(C)C)cn2ncnc12 [Example 395, (4-(dimethylamino)piperidin-1-yl)(6-isopropyl-5-(8-methyl-[1,2,4]triazolo[1,5-a]pyridin-6-yl)-4H-pyrrolo[3,2-d]thiazol-2-yl)methanone]
5.69 nM | 3740 nM | 2.57 nM | Cc1cc(-c2[nH]c3sc(C4CCN(CC(C)(C)O)CC4)nc3c2C(C)C)cn2ncnc12 [Example 18, 1-(4-(6-isopropyl-5-(8-methyl-[1,2,4]triazolo[1,5-a]pyridin-6-yl)-4H-pyrrolo[3,2-d]thiazol-2-yl)piperidin-1-yl)-2-methylpropan-2-ol]
2.98 nM | 6650 nM | 0.38 nM | Cc1c(-c2[nH]c3sc(N4CCC(NC5CCC5)CC4)nc3c2C(C)C)cn2ncnc2c1C [Example 293, N-cyclobutyl-1-(5-(7,8-dimethyl-[1,2,4]triazolo[1,5-a]pyridin-6-yl)-6-isopropyl-4H-pyrrolo[3,2-d]thiazol-2-yl) piperidin-4-amine]
2.92 nM | 6840 nM | 0.56 nM | Cc1c(-c2[nH]c3sc(C4CCN(CC5(C)COC5)CC4)nc3c2C(C)C)cn2ncnc2c1C [Example 47, 5-(7,8-dimethyl-[1,2,4]triazolo[1,5-a]pyridin-6-yl)-6-isopropyl-2-(1-((3-methyloxetan-3-yl)methyl)piperidin-4-yl)-4H-pyrrolo[3,2-d]thiazole]
1.89 nM | 12000 nM | 15.6 nM | COc1cc(-c2[nH]c3sc(C4CCC(N)CC4)nc3c2C(C)C)cn2ncnc12 (single isomer, unassigned) [Example 93, 4-(6-isopropyl-5-(8-methoxy-[1,2,4]triazolo[1,5-a]pyridin-6-yl)-4H-pyrrolo[3,2-d]thiazol-2-yl)cyclohexan-1-amine]
1.43 nM | 10800 nM | 0.33 nM | Cc1c(-c2[nH]c3sc(N4CCNCC4)nc3c2C(C)C)cn2ncnc2c1C [Example 278, 5-(7,8-dimethyl-[1,2,4]triazolo[1,5-a]pyridin-6-yl)-6-isopropyl-2-(piperazin-1-yl)-4H-pyrrolo[3,2-d]thiazole]
1.23 nM | 16100 nM | 1.28 nM | Cc1cc(-c2[nH]c3sc(C4CCC(NCC5(C)COC5)CC4)nc3c2C(C)C)cn2ncnc12 (single isomer, unassigned) [Example 134, 4-(6-isopropyl-5-(8-methyl-[1,2,4]triazolo[1,5-a]pyridin-6-yl)-4H-pyrrolo[3,2-d]thiazol-2-yl)-N-((3-methyloxetan-3-yl)methyl)cyclohexan-1-amine]
